Structures can show the parent of a compound that is named as a salt. Where two headings read alike, the source gives them in different places.
Tests used:
recombinant human AChE = target: T1, recombinant human AChE (Homo sapiens, UniProt P22303); assay: biochemical; conditions: for IC50: isolated compounds from TT-hull-50EE, recombinant human AChE
T1 construct: purchased R&D Systems Inc. 7574-CE
Method: The acetylthiocholine iodide and DTNB were used for in vitro AChE inhibitory activity assays following the previous report. […] An equal volume of DMSO instead of the sample solution was used as a blank and expressed as 100% AChE activity. The absorbance changes were recorded at 405 nm for 10 min. The AChE inhibition (%) was calculated as follows: [(A405blank−A405sample)/(A405blank)] × 100%.

[1] = Oxygen radical absorbance capacity (ORAC), OxiSelect Assay Kit; conditions: for ORAC activities relative to those of Trolox / ORAC activities, fold higher than those of Trolox: compound at 10 μM; for ORAC activities relative to those of Trolox: % of Trolox; for ORAC values: compound at a concentration of 10 μM
Method: The antioxidant index of free radical scavenging activities of the extracts (1.5 or 2.5 μg/mL) and purified compounds (10 μM) of TT-hull were determined by a commercial OxiSelect™ Assay Kit for oxygen radical absorbance capacity (ORAC) determination. The standard curve of ORAC was plotted using different concentrations of water-soluble vitamin E analog (the compound’s name was Trolox, 6-hydroxy-2,5,7,8-tetramethylchroman-2-carboxylic acid) at 2.5, 5, 10, 20, 40, and 60 μM. Therefore, the ORAC activities of TT-hull extracts or purified compounds were calculated equivalently to the Trolox effects and expressed as Trolox equivalents (μM).

Aβ (1-42) peptide = target: T2, Aβ (1-42) peptide (Homo sapiens, UniProt P05067); assay: Inhibition of Aβ (1-42) aggregation in vitro (ThT fluorescent assay); type: biochemical; conditions: for inhibition at 10 µM: read-out: inhibition of Aβ aggregation
T2 construct: the synthetic Aβ (1-42) peptide was weighed in an Eppendorf tube; purchased Kelowna International Scientific Inc; host or cells: synthetic peptide
Method: The ThT fluorescent assay was used to monitor the isolated compounds from the TT-hull on inhibition of Aβ (1-42) peptide aggregations. For the preparation of the Aβ stock film, the synthetic Aβ (1-42) peptide was weighed in an Eppendorf tube and dissolved in HFIP to prepare a 1 mM stock solution; then, HFIP solvent was evaporated to form the Aβ (1-42) film. The stock film was dissolved in 100 μL of 60 mM NaOH, and further diluted with 50 mM phosphate buffer (pH7.4, containing 150 mM sodium chloride, 1 mM EDTA, and 0.02% sodium azide). The 125 μL working solution contained 10 μM Aβ (1-42) peptide, purified compounds (10, 20, and 40 μM in DMSO), and 10 μM ThT solution, which was gently shaken at 37 °C for 24 h. The mixture without the sample additions was the control. The fluorescence ratios of Ex440nm/Em486nm were recorded at a time of 0 h and 24 h, and changes in fluorescence over a 24 h period were expressed as ΔE. The inhibition of Aβ aggregation (%) was calculated as [(ΔEcontrol−ΔEsample)/(ΔEcontrol)] × 100%.

[2] = tested on: scopolamine-induced amnesiac ICR mice; assay: Passive avoidance test in scopolamine-induced amnesiac ICR mice; type: in vivo; conditions: scopolamine 1 mg/kg i.p.
Method: The oral administration of TT-hull extracts or purified compounds in scopolamine-induced amnesiac ICR mice was performed according to the previous report, with some modifications. The 8-week-old male ICR mice were purchased from the Laboratory Animal Center, College of Medicine, National Taiwan University (Taipei, Taiwan). Normal diets (Prolab® RMH2500, Jefferson City, MO, USA) and water were provided during the animal experiments. All animal experimental protocols were approved by the Institutional Animal Care and Use Committee of Taipei Medical University (LAC-2016-0275). After one week of acclimation, for treatments of TT-hull extracts to test prevention, the mice were randomly divided into seven groups (6 heads/group), including the blank, the control, the donepezil-positive control, and the four extract-administered groups. […] Except for the blank group, the mice in each group were intraperitoneally injected with scopolamine (1 mg/kg) 30 min after the oral sample administration, and the mice in the blank group were injected with an equal volume of PBS. After being injected with scopolamine or PBS for another 30 min, each mouse was evaluated by a passive avoidance test at day 13 to day 14 and by the Morris water maze from day 17 to day 19. At the end of the experiments at day 20, the mice were sacrificed. For oral administration of purified compounds to test prevention, the ICR mice were pre-administered orally with TT-1 (100 mg/kg, 200 mg/kg) or TT-2 (300 mg/kg) once a day by gavage from day 1 to day 5; […]. From day 6 to day 11, the procedure was the same for the oral administration of the TT-hull extracts. Each mouse was evaluated by a passive avoidance test at day 6 to day 7 and by the Morris water maze from day 8 to day 10. […]
The passive avoidance test and Morris water maze were used to evaluate the learning and memory functions of scopolamine-treated mice after the treatments with TT-hull extracts or purified compounds, by following the previous report. […] The time for which each mouse stayed in the light box (step-through latency of the acquisition trial, sec) was recorded. […] On the second day of the passive avoidance test (as the retention trial), the same protocol was performed, except that there were no electric foot shocks in the dark box, and the time for which each mouse stayed in the light box (step-through latency of the retention trial) was recorded. […] For the second training procedure of the third day (as the reference memory task), the time required for the mouse to find and climb onto the platform from the starting point was recorded as the latency (sec). The platform was then removed (as the probe test), and the swimming time and crossing time in the platform quadrant were recorded for each mouse.

[3] = tested on: scopolamine-induced amnesiac ICR mice; assay: Morris water maze in scopolamine-induced amnesiac ICR mice; type: in vivo; conditions: donepezil 5 mg/kg, scopolamine 1 mg/kg i.p.
Method: The oral administration of TT-hull extracts or purified compounds in scopolamine-induced amnesiac ICR mice was performed according to the previous report, with some modifications. The 8-week-old male ICR mice were purchased from the Laboratory Animal Center, College of Medicine, National Taiwan University (Taipei, Taiwan). Normal diets (Prolab® RMH2500, Jefferson City, MO, USA) and water were provided during the animal experiments. All animal experimental protocols were approved by the Institutional Animal Care and Use Committee of Taipei Medical University (LAC-2016-0275). After one week of acclimation, for treatments of TT-hull extracts to test prevention, the mice were randomly divided into seven groups (6 heads/group), including the blank, the control, the donepezil-positive control, and the four extract-administered groups. […] Except for the blank group, the mice in each group were intraperitoneally injected with scopolamine (1 mg/kg) 30 min after the oral sample administration, and the mice in the blank group were injected with an equal volume of PBS. After being injected with scopolamine or PBS for another 30 min, each mouse was evaluated by a passive avoidance test at day 13 to day 14 and by the Morris water maze from day 17 to day 19. At the end of the experiments at day 20, the mice were sacrificed. For oral administration of purified compounds to test prevention, the ICR mice were pre-administered orally with TT-1 (100 mg/kg, 200 mg/kg) or TT-2 (300 mg/kg) once a day by gavage from day 1 to day 5; […]. From day 6 to day 11, the procedure was the same for the oral administration of the TT-hull extracts. Each mouse was evaluated by a passive avoidance test at day 6 to day 7 and by the Morris water maze from day 8 to day 10. At the end of the experiments at day 11, the mice were sacrificed, and the brain tissue was isolated and stored at −80 °C for further measurements.
The passive avoidance test and Morris water maze were used to evaluate the learning and memory functions of scopolamine-treated mice after the treatments with TT-hull extracts or purified compounds, by following the previous report. The apparatus of the passive avoidance test included a light box and a dark box separated by a guillotine door in a shuttle chamber (AccuScan Instruments Inc, Columbus, OH, USA), and a wired metal floor was placed in the dark box to provide electric foot shocks during the acquisition trial. On the first day of the passive avoidance test (as the acquisition trial), each mouse was acclimatized to the shuttle chamber for 30 min, and then placed in the light box. The mouse entered the dark box, the guillotine door was immediately closed, and, at the same time, an electric shock (0.3 mA) was delivered for 3 sec to the mouse via the wired metal floor. The time for which each mouse stayed in the light box (step-through latency of the acquisition trial, sec) was recorded. […] On the second day of the passive avoidance test (as the retention trial), the same protocol was performed, except that there were no electric foot shocks in the dark box, and the time for which each mouse stayed in the light box (step-through latency of the retention trial) was recorded. For the Morris water maze evaluations, a three-successive-day training protocol was performed; each mouse was trained for 1 min to find and climb onto the platform twice a day at 30 min intervals. For the second training procedure of the third day (as the reference memory task), the time required for the mouse to find and climb onto the platform from the starting point was recorded as the latency (sec). The platform was then removed (as the probe test), and the swimming time and crossing time in the platform quadrant were recorded for each mouse.

[4] = target: T3, AChE activity in brain extracts (Mus musculus, UniProt P21836); type: in vivo; conditions: oral TT-1 200 mg/kg, donepezil 5 mg/kg; scopolamine-induced amnesiac mice
T3 construct: from tissue; host or cells: whole brain of ICR mice
Method: (§1) At the end of the TT-1 and TT-2 treatments, mice were sacrificed, and the whole brain of each ICR mouse was isolated and immediately stored at −80 °C for the measurement of residual AChE activity and the reduced GSH levels. The whole brain of each mouse was ground into powder by means of a mortar and pestle in liquid nitrogen and then extracted by adding 1 mL of 100 mM phosphate buffer (pH 7.5) to the ice bath. […] The residual AChE activity of each brain extract was expressed as [A405sample−A405sample blank]/μg protein.

[5] = tested on: reduced form GSH contents in brain extracts; assay: Reduced GSH levels in brain tissue extracts of treated mice; type: in vivo; conditions: oral TT-1 200 mg/kg, donepezil 5 mg/kg; scopolamine-induced amnesiac mice
Method: as §1

[6] = cited from earlier work
[7] = tested on: scopolamine-induced amnesiac mice; conditions: 10 mg/kg, with or without nanoparticle-delivered formulation; cited from earlier work
[8] = IC50 of AChE inhibitory activity
[9] = 1:1 ratio of Aβ to compound, 10 μM:10 μM, 37 °C, 24 h
[10] = 1:2 ratio of Aβ to compound, 10 μM to 20 μM, 37 °C, 24 h
[11] = 1:4 ratio of Aβ to compound, 10 μM to 40 μM, 37 °C, 24 h
[12] = purified compound experiment, oral TT-1 100 and 200 mg/kg, TT-2 300 mg/kg, donepezil 5 mg/kg
[13] = purified compound experiment, oral TT-1 200 mg/kg
[14] = read-out: IC50 of AChE inhibitory activity
[15] = extract experiment, oral 50EE or HWE 100 and 200 mg/kg

T1 sequence (P22303 32-614): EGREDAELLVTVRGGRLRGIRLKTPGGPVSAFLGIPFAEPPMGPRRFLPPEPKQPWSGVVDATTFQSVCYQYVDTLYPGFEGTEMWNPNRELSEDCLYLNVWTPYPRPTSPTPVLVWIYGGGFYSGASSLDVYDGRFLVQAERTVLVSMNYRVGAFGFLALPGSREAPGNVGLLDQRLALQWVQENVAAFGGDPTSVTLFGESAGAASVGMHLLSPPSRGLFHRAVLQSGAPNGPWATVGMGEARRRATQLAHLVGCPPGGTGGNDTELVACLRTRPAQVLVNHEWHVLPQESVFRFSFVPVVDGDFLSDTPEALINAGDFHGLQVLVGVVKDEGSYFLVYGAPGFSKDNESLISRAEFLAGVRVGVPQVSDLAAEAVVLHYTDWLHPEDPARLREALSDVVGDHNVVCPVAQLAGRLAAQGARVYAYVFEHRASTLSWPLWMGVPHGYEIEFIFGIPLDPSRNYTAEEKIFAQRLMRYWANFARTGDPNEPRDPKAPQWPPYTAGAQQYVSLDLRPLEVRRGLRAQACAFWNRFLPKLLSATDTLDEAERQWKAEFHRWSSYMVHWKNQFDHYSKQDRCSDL
T2 sequence (P05067 672-713): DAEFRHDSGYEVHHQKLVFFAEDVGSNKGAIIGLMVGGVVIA
T3 sequence (P21836 32-614): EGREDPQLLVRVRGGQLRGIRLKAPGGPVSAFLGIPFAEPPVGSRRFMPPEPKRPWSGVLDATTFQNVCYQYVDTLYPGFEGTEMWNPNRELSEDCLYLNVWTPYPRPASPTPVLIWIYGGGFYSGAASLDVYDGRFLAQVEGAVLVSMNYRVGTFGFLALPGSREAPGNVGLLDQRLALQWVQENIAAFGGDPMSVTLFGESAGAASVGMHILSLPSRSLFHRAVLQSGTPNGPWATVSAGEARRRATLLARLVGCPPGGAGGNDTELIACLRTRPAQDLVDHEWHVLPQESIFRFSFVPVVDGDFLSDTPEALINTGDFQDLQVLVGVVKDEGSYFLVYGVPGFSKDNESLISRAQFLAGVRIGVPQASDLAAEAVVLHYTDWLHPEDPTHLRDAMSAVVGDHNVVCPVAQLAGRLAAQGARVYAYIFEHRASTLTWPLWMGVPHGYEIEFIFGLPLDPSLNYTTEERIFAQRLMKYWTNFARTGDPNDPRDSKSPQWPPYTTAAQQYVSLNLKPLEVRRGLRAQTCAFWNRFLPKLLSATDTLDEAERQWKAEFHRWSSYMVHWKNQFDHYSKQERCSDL

SMILES | ORAC values [1] [μM Trolox equivalents] | inhibition at 10 µM (Aβ (1-42) peptide; [9]) [%] | inhibition of Aβ aggregation (Aβ (1-42) peptide; [10]) [%] | inhibition of Aβ aggregation (Aβ (1-42) peptide; [11]) [%] | step-through latency in the retention trial vs control [2, 12] | IC50 (recombinant human AChE; [14]) [µM] | ORAC activities, fold higher than those of Trolox [1] | other results
O=C(OC1O[C@@H]2COC(=O)c3cc(O)c(O)c(O)c3-c3c(cc(O)c(O)c3O)C(=O)O[C@H]2[C@H](OC(=O)c2cc(O)c(O)c(O)c2)[C@H]1OC(=O)c1cc(O)c(O)c(O)c1)c1cc(O)c(O)c(O)c1 (some centres unmarked) [TT-1, Tellimagrandin II] | 5.1 | 75.8 | 100 | 100 | showed longer step-through latency | – | – | IC50 (recombinant human AChE; [8]): 18.6 µM; ORAC activities relative to those of Trolox [1]: 50%; crossing numbers in the target quadrant, probe test, vs control [3, 13]: higher crossing numbers in the target quadrant; time spent in the target quadrant, probe test, vs control [3, 13]: longer time spent in the target quadrant; AChE activity in brain extracts vs control [4]: lower AChE activity; reduced form GSH contents in brain extracts vs control [5]: higher reduced form GSH contents; remaining contents ([6]; acidic buffers (pH 2 or pH 4) and simulated gastric fluids (pH 1.2)): higher than 90%; residual content ([6]; simulated intestinal fluids (pH 7.5) at 37 °C for 9 h): 31.40%
O=C(O[C@H]1[C@@H]2OC(=O)c3cc(O)c(O)c(O)c3-c3c(cc(O)c(O)c3O)C(=O)OC[C@H]2OC(O)[C@@H]1OC(=O)c1cc(O)c(O)c(O)c1)c1cc(O)c(O)c(O)c1 (some centres unmarked) [TT-8, tellimagrandin I] | 7.5 | – | 97.13 | 100 | – | 18.4 | – | ORAC activities relative to those of Trolox [1]: 75%; inhibition at 10 µM (Aβ (1-42) peptide): 66.6%
O=C(O)c1cc(O)c(O)c(O)c1 [TT-6, gallic acid] | 23.7 | 37.2 | 77.73 | 88.19 | – | – | 2.4 fold | IC50 (recombinant human AChE; [8]): 246 µM; learning behavior functions in the probe test of the Morris water maze [7]: showed improved learning behavior functions
COc1cc2c(cc1OC)C(=O)C(CC1CCN(Cc3ccccc3)CC1)C2 (centres unmarked) [donepezil, donepezil hydrochloride] | – | – | – | – | showed longer step-through latency | – | – | step-through latency in the retention trial vs control ([2]; extract experiment, oral 50EE or HWE 100 and 200 mg/kg daily day 1-20, donepezil 5 mg/kg day 11-20): remained for a longer period of time in the light box; crossing numbers in the target quadrant, probe test, vs control [3, 15]: higher crossing numbers in the target quadrant; time spent in the target quadrant, probe test, vs control [3, 15]: spent more time in the target quadrant; crossing numbers in the target quadrant, probe test, vs control [3, 13]: higher crossing numbers in the target quadrant; time spent in the target quadrant, probe test, vs control [3, 13]: longer time spent in the target quadrant
O=C(OC[C@H]1O[C@@H](OC(=O)c2cc(O)c(O)c(O)c2)[C@H](OC(=O)c2cc(O)c(O)c(O)c2)[C@@H](OC(=O)c2cc(O)c(O)c(O)c2)[C@@H]1O)c1cc(O)c(O)c(O)c1 [TT-2, 1,2,3,6-tetra-O-galloyl-β-D-glucopyranoside] | 18.7 | 58.5 | 88.08 | – | no significant differences (p > 0.05) | 84.2 | close to two-fold higher | –
O=C(OC[C@H]1O[C@@H](OC(=O)c2cc(O)c(O)c(O)c2)[C@H](OC(=O)c2cc(O)c(O)c(O)c2)[C@@H](O)[C@@H]1O)c1cc(O)c(O)c(O)c1 [TT-4, 1,2,6-tri-O-galloyl-β-D-glucopyranoside] | 18.1 | 54.6 | 86.82 | 100 | – | > 800 | close to two-fold higher | inhibition at 800 µM (recombinant human AChE; at concentration of 800 μM): < 50%
O=C(O[C@@H]1O[C@H](CO)[C@@H](O)[C@H](OC(=O)c2cc(O)c(O)c(O)c2)[C@H]1OC(=O)c1cc(O)c(O)c(O)c1)c1cc(O)c(O)c(O)c1 [TT-3, 1,2,3-tri-O-galloyl-β-D-glucopyranoside] | 15.1 | 42.7 | 92.44 | – | – | 371 | close to two-fold higher | –
